Measured values reported in paper PMC6815956, “Bioinspired Self-assembling Peptide Hydrogel with Proteoglycan-assisted Growth Factor Delivery for Therapeutic Angiogenesis” (Theranostics, 2019).
Blank lines part the entries; values can stand above or below the substance they belong to.

How the values were obtained:
[1] = Isothermal titration calorimetry, binding of HS to LRK; details: ITC, 25 °C, PBS
Method: Isothermal titration calorimetry (ITC) measurements were operated at 25 °C using a Micro ITC-200 microcalorimeter (GE Healthcare Life Sciences). The procedure was performed by titrating 0.35 mM HS from a syringe into 0.2 mM RADA16-LRK peptide solution loaded in a cell (both in PBS). In the next step, the data were integrated after background correction and fitted to a curve to obtain the binding constant.
To test the binding affinity between HS and […] peptide sequence, the molecular interactions between LRK sequence and HS were studied by ITC. Heat changes were recorded when the increments of HS solution were titrated drop by drop into functionalized peptide LRK solution. The binding constant Ka = [drawing 5] M^-1 was then obtained by approximating the integrated data into a fitting curve (Figure 4A).

[2] = Circular dichroism spectroscopy (secondary structure); format: physicochemical; details: 0.05 % (w/v)
Method: Circular dichroism (CD) spectra were collected on a CD Spectrometer Model 410 (AVIV Biomedical Inc.) to explore the secondary structure of SAPs. The cuvette quartz cell's path length was 1mm with a wavelength range between 190-260 nm at ambient temperature. The 0.05 % (w/v) RADA16-QLK, RADA16-LRK, and HS solution were allowed to store at 4 °C overnight to ensure complete self-assembly before measurement.
(§1) TEM images were obtained to identify the morphological change of nanofiber microstructure before and after enzymatic crosslinking. […] From the findings of TEM and AFM images, the interwoven nanofibers with diameters of 10-20 nm and pore sizes between 10-200 nm were similar to natural ECM fibers in both appearances and scales (Figure 2B-E).

[3] = TEM and AFM of nanofibers; format: physicochemical; details: 0.05 % (w/v); for fiber morphology: TEM
Method: Transmission electron microscopy (TEM) was used to observe the microstructure of peptides with a Hitachi HT7700 (120 kV) Bio-TEM. The 0.05 % (w/v) RADA16-QLK before and after microbial transglutaminase (mTG) crosslinking were prepared at pH 7. The TEM samples were prepared by dropping 10 μL of peptide solution on the copper grid coated with carbon film and stained with 2 % phosphotungstic acid solution. The morphology of the peptide scaffolds was captured using atomic force microscopy (AFM) (DI Dimension 3100, Veeco Instruments Inc, US) in dynamic force mode. In brief, 0.05 % (w/v) peptide solution was sprayed on the surface of a cleaved mica for 5 min, the surface was then washed with sterilized water for several times and blown dry by anhydrous nitrogen.
as §1

[4] = Oscillatory rheology, frequency sweep; format: physicochemical; details: for storage modulus (G'): frequency sweep, 1 % strain
Method: (§2) The mechanical properties of the hydrogel scaffold were measured using a rheometer (Anton Paar, US). Measurements for the dynamic oscillatory frequency sweep (0.1-100 Hz) were performed at 1% strain amplitude and 25 °C. Shear recovery (1 % strain for 60 s, 50 % strain for 30 s, 1 % strain for 60 s) was conducted for three cycles at 25 °C. All measurements were performed on a 25-mm cone plate and the Anton Paar Rheometer software was used for analysis.
(§3) The 2 % (w/v) RADA16-QLK and RADA16-LRK peptide solutions were mixed in a volume ratio of 3:1, and then introduced into a self-made cylinder mold. PBS buffer or cell culture medium was further added to trigger sol-gel transition. For the crosslinking process, the self-assembled cylindrical hydrogel was soaked into mTG solution (20 U/mL PBS) for 12 h at 38 °C. 40 µL of peptide hydrogel was transferred into a 96-well plate followed by 200 µL of PBS added to each well and incubated at 37 °C. At predetermined time points (3, 12, 24, 72, 168, 336, 504, 672, and 840 h), the supernatant was completely removed by syringe and replenished with fresh PBS. The collected supernatant was then stored at -80 °C for further tests. Ninhydrin reagent solution was employed to quantify the disintegrated peptide amino acid sequences of the hydrogel according to manufacturer's protocols. After the addition of 95 % ethanol to stop the reaction, the absorbance of the hydrogel at 570 nm was measured by a SpectraMax Plus 384 Microplate Reader.
(§4) To test the mechanical stability and stiffness of the peptide hydrogel, frequency sweep and shear recovery measurements were conducted. […] The storage modulus (G') of QLK hydrogel increased from 1000 Pa to 5000 Pa, while the G' of QLK/LRK hydrogel increased from 400 Pa to 2500 Pa (Figure 3A-B). At least a five-fold enhancement in rheological stiffness and the mechanical properties of QLK-functionalized hydrogel were adjustable with mTG treatment. The concentration of transglutaminase also had influence on the mechanical properties of the hydrogel. Basically, the storage modulus (G') of the hydrogel was increased with the increase of mTG concentration. It was measured at pressure levels of 1 kPa, 1.5 kPa, 3 kPa, 5 kPa with respect to the concentrations of 0 U/mL, 5 U/mL, 10 U/mL, 20 U/mL.
Figure 3 Rheological properties of peptide hydrogel.

[5] = Shear recovery (continuous step strain); format: physicochemical; details: 1 % strain 60 s, 50 % strain 30 s, three cycles, 25 °C, n = 6
Method: as §2, §4

[6] = In vitro disintegration in PBS (ninhydrin); format: physicochemical; details: 2 % (w/v) hydrogel, 37 °C, ninhydrin 570 nm, n = 6; for total disintegration in PBS: 35 days; for disintegration in PBS: first three days
Method: as §3
To evaluate the stability of the peptide hydrogel in PBS buffer, Ninhydrin reagent solution was used to quantify the disintegration rate of peptide hydrogel in vitro. […] After this initial period of rapid disintegration, the kinetics slowed down. […] The disintegration rate of hydrogel was slower in the crosslinking group when compared with that in the non-crosslinking group during the investigative time period. Next, we are interested in figuring out if different culture condition will result in different peptide disintegration rate. Thus, another group of peptides incubated in cell culture medium was also conducted for comparison.

[7] = In vitro disintegration in cell culture medium; format: physicochemical; details: 2 % (w/v) hydrogel, with and without mTG (20 U/mL), n = 6
Method: as §3
To evaluate the stability of the peptide hydrogel in PBS buffer, Ninhydrin reagent solution was used to quantify the disintegration rate of peptide hydrogel in vitro. […] After this initial period of rapid disintegration, the kinetics slowed down. […]

[8] = GF loading efficiency (ELISA); format: physicochemical; details: GF/HS complex in QLK/LRK peptide hydrogel, n = 6
Method: (§5) At specific time intervals, the supernatants were collected, stored at -80 °C, and fresh release buffer was compensated. […] After adding the stop solution, the absorbance of the hydrogel at 450/540 nm was recorded by SpectraMax Plus 384 Microplate Reader.
(§6) It was the major challenge for scaffold-based GF delivery that how to maintain the release rate of incorporated GFs.

[9] = GF release profile (ELISA); format: physicochemical; details: from GAG-assisted QLK/LRK hydrogel, PBS w/ 0.05 % Tween 20, 1 % BSA, 37 °C, n = 6
Method: as §5, §6

HUVECs = assay: Endothelial tube-like formation assay; format: cell-based, human; details: GF released from hydrogel (200 ng, 3 days), 8 h, n = 8, vs basal medium
Method: To identify the angiogenic ability of released GFs in vitro, 80 µL of GF-depleted peptide hydrogel was introduced to a pre-cooled 96-well plate using chilled pipet tips. The gel was incubated for 30 min at 37 °C with 5 % CO2 to induce gelation. [drawing 4] HUVECs were first seeded on GF-depleted peptide hydrogel with 100 μL of culture medium and incubated for 8 h. […] Finally, the differentiations of HUVECs were observed periodically for 8 h under an inverted phase contrast microscope. Angiogenesis Analyzer ImageJ (NIH) was employed for quantification and the images were taken in ten random fields per sample.
Figure 5 The human umbilical vein endothelial cells (HUVECs) tube-like formation assay. […] (B) The original images were analyzed by Angiogenesis Analyzer for ImageJ (NIH), and the quantified result of total vessels length, total meshes area, total branches intervals were calculated (all the values were normalized with the analyzed area). […] Error bars show ± S.D. for total n = 8.

[10] = compared with VEGF; ref [20]; cited from earlier work

HS binding (in words) [1]: good HS binding consensus sequence
Substance: AcN-RADARADARADARADAGGLRKKLGKA-CONH

secondary structure by CD ([2]; 4 °C overnight, ambient temperature, without mTG): β-sheet secondary structure | secondary structure by CD ([2]; after mTG crosslinking): β-sheet secondary structure | CD negative maximum peak ([2]; after mTG crosslinking): 216 nm | CD positive maximum peak ([2]; after mTG crosslinking): ~195 nm | CD negative maximum peak ([2]; without mTG): 216 nm | CD positive maximum peak ([2]; without mTG): ~195 nm | nanofiber diameter ([3]; TEM and AFM, pH 7): 10-20 nm | pore size of fibrous network ([3]; TEM and AFM, pH 7): 10-200 nm | fiber morphology ([3]; pH 7, before enzymatic crosslinking): Sparsely-wired fiber entanglements | enhancement of stiffness / storage modulus by mTG ([4]; after vs before mTG, 25 °C): five-fold increase of storage modulus | storage modulus (G') ([4]; 25 °C, after mTG crosslinking): 5000 Pa | storage modulus (G') ([4]; 25 °C, before mTG crosslinking): 1000 Pa | storage modulus (G') vs mTG concentration ([4]; mTG 0 U/mL): 1 kPa | storage modulus (G') vs mTG concentration ([4]; mTG 5 U/mL): 1.5 kPa | storage modulus (G') vs mTG concentration ([4]; mTG 10 U/mL): 3 kPa | storage modulus (G') vs mTG concentration ([4]; mTG 20 U/mL): 5 kPa | total disintegration in PBS ([6]; mTG-crosslinked (20 U/mL)): approximately 61% | total disintegration in PBS ([6]; non-crosslinked): ~82% | disintegration in PBS ([6]; mTG-crosslinked (20 U/mL)): 20% | disintegration in PBS ([6]; non-crosslinked): 40%
Substance: AcN-RADARADARADARADAGGQQLK-NH2 [self-assembling peptide with transglutaminase-crosslinkable QQLK motif; forms hydrogel]
fiber morphology ([3]; pH 7, after mTG (20 U/mL) crosslinking): more densely-compacted nanofibrous entanglements and more continuous self-assembling fibers | shear thinning / shear recovery [5]: shear thinning and a potential shear recovery ability | disintegration in cell culture medium vs PBS [7]: degraded faster in the culture medium condition compared to that in PBS, especially in the group without crosslinking

Substance: HGF: Recombinant Human HGF (HEK293 derived); hepatocyte growth factor
loading efficiency [8]: ~82.5 ± 2.1% | cumulative release, total ([9]; 28 days, ELISA): approximately 46% | cumulative release, initial ([9]; day 3, ELISA): 25% | tube-like formation of HUVECs (HUVECs): positive effect on tube-like formation of HUVECs | binding affinity with heparin or HS (in words) [10]: higher binding affinity with heparin or HS than VEGF

Substance: VEGF
tube-like formation of HUVECs (HUVECs): positive effect on tube-like formation of HUVECs
